Each structure is given as a SMILES string.

The test system of this experiment is MV-4-11 cells. As to the kind of experiment: Gene expression microarray analysis (Affymetrix PrimeView) and GSEA. More on the design: RFU PODN (11730768_x_at) / Fold change /veh PODN (11730768_x_at) / RFU LINC00158 (11744669_a_at) / Fold change /veh LINC00158 (11744669_a_at) / RFU DUSP10 (11751237_a_at) / Fold change /veh DUSP10 (11751237_a_at) / RFU ID3 (11757404_x_at) / Fold change /veh ID3 (11757404_x_at) / RFU PLEKHG5 (11737974_s_at) / Fold change /veh PLEKHG5 (11737974_s_at) / RFU LRRC4B (11730491_at) / Fold change /veh LRRC4B (11730491_at) / RFU GIMAP4 (11747438_a_at) / Fold change /veh GIMAP4 (11747438_a_at) / RFU KRT8 (11758183_x_at) / Fold change /veh KRT8 (11758183_x_at) / RFU CNN1 (11734310_a_at) / Fold change /veh CNN1 (11734310_a_at) / RFU VPS37D (11726825_at) / Fold change /veh VPS37D (11726825_at) / RFU C10orf10 (11716522_x_at) / Fold change /veh C10orf10 (11716522_x_at) / RFU KIR2DL2 /// KIR2DL4 /// KIR2DL5A /// KIR2DL5B /// KIR2DS1 /// KIR2DS2 /// KIR2DS3 /// KIR2DS4 /// KIR3DL3 /// KIR3DL3 /// KIR3DS1 (11738374_at) / Fold change /veh KIR2DL2 /// KIR2DL4 /// KIR2DL5A /// KIR2DL5B /// KIR2DS1 /// KIR2DS2 /// KIR2DS3 /// KIR2DS4 /// KIR3DL3 /// KIR3DL3 /// KIR3DS1 (11738374_at) / RFU C1QL1 (11718748_at) / Fold change /veh C1QL1 (11718748_at) / RFU TMPRSS4 (11747572_a_at) / Fold change /veh TMPRSS4 (11747572_a_at) / RFU HAMP (11756126_x_at) / Fold change /veh HAMP (11756126_x_at) / RFU RNFT2 (11725882_a_at) / Fold change /veh RNFT2 (11725882_a_at) / RFU NR4A2 (11747474_a_at) / Fold change /veh NR4A2 (11747474_a_at) / RFU ABCC12 (11746883_a_at) / Fold change /veh ABCC12 (11746883_a_at) / RFU TMEM136 (11760407_x_at) / Fold change /veh TMEM136 (11760407_x_at) / RFU CLDN22 /// WWC2 (11732394_at) / Fold change /veh CLDN22 /// WWC2 (11732394_at) / RFU HLA-DPB1 (11760878_x_at) / Fold change /veh HLA-DPB1 (11760878_x_at) / RFU SPINT1 (11716480_a_at) / Fold change /veh SPINT1 (11716480_a_at) / RFU GAP43 (11754022_s_at) / Fold change /veh GAP43 (11754022_s_at) / RFU A4GNT (11735810_at) / Fold change /veh A4GNT (11735810_at) / RFU PRB3 (11715151_x_at) / Fold change /veh PRB3 (11715151_x_at) / RFU TUBB4B (11761932_at) / Fold change /veh TUBB4B (11761932_at) / RFU CAPN14 (11732068_a_at) / Fold change /veh CAPN14 (11732068_a_at) / RFU TMCC2 (11721928_a_at) / Fold change /veh TMCC2 (11721928_a_at) / RFU IRGQ (11745062_a_at) / Fold change /veh IRGQ (11745062_a_at) / RFU FAM174B (11720279_a_at) / Fold change /veh FAM174B (11720279_a_at) / RFU TMPRSS4 (11748680_a_at) / Fold change /veh TMPRSS4 (11748680_a_at) / RFU FAM212B (11763350_a_at) / Fold change /veh FAM212B (11763350_a_at) / RFU PLEKHG5 (11743358_a_at) / Fold change /veh PLEKHG5 (11743358_a_at) / RFU ZSCAN30 (11745921_a_at) / Fold change /veh ZSCAN30 (11745921_a_at) / RFU CMKLR1 (11741424_a_at) / Fold change /veh CMKLR1 (11741424_a_at) / RFU LOC101060620 /// MAPK8IP1 (11723275_at) / Fold change /veh LOC101060620 /// MAPK8IP1 (11723275_at) / RFU SPTSSB (11747773_x_at) / Fold change /veh SPTSSB (11747773_x_at) / RFU PRSS12 (11739890_at) / Fold change /veh PRSS12 (11739890_at) / RFU BIN1 (11741810_x_at) / Fold change /veh BIN1 (11741810_x_at) / RFU WNT11 (11732464_a_at) / Fold change /veh WNT11 (11732464_a_at) / RFU C10orf10 (11716521_a_at) / Fold change /veh C10orf10 (11716521_a_at) / RFU C5orf56 (11738089_at) / Fold change /veh C5orf56 (11738089_at) / RFU CYB561 (11721691_x_at) / Fold change /veh CYB561 (11721691_x_at) / RFU ANKRD19P (11752326_a_at) / Fold change /veh ANKRD19P (11752326_a_at) / RFU OR2T12 /// OR2T33 /// OR2T8 (11738714_s_at) / Fold change /veh OR2T12 /// OR2T33 /// OR2T8 (11738714_s_at) / RFU VCAN (11748164_a_at) / Fold change /veh VCAN (11748164_a_at) / RFU JSRP1 (11732532_at) / Fold change /veh JSRP1 (11732532_at) / RFU KRTAP10-11 (11738290_x_at) / Fold change /veh KRTAP10-11 (11738290_x_at) / RFU MYO3A (11730013_a_at) / Fold change /veh MYO3A (11730013_a_at) / RFU EBF3 (11725865_a_at) / Fold change /veh EBF3 (11725865_a_at) / RFU CAMK2N1 (11719241_x_at) / Fold change /veh CAMK2N1 (11719241_x_at) / RFU C5orf56 (11738088_a_at) / Fold change /veh C5orf56 (11738088_a_at) / RFU OLFML3 (11715873_a_at) / Fold change /veh OLFML3 (11715873_a_at) / RFU LOC100653217 /// NTM (11731650_a_at) / Fold change /veh LOC100653217 /// NTM (11731650_a_at) / RFU MAPK11 (11762145_a_at) / Fold change /veh MAPK11 (11762145_a_at) / RFU FIZ1 (11724087_x_at) / Fold change /veh FIZ1 (11724087_x_at) / RFU OASL (11726364_x_at) / Fold change /veh OASL (11726364_x_at) / RFU SOX15 (11748057_x_at) / Fold change /veh SOX15 (11748057_x_at) / RFU CD79A (11719716_a_at) / Fold change /veh CD79A (11719716_a_at) / RFU HIST1H1D (11736915_at) / Fold change /veh HIST1H1D (11736915_at) / RFU CASKIN2 (11723855_a_at) / Fold change /veh CASKIN2 (11723855_a_at) / RFU LOC730098 (11760151_x_at) / Fold change /veh LOC730098 (11760151_x_at) / RFU OR4N2 (11742367_at) / Fold change /veh OR4N2 (11742367_at) / RFU PRRT2 (11749266_a_at) / Fold change /veh PRRT2 (11749266_a_at) / RFU SNX32 (11753110_a_at) / Fold change /veh SNX32 (11753110_a_at) / RFU CDHR5 (11726645_a_at) / Fold change /veh CDHR5 (11726645_a_at) / RFU RCAN1 (11760418_a_at) / Fold change /veh RCAN1 (11760418_a_at) / RFU FAM167A (11723789_a_at) / Fold change /veh FAM167A (11723789_a_at) / RFU FAM26E (11764081_at) / Fold change /veh FAM26E (11764081_at) / RFU ISYNA1 (11749810_s_at) / Fold change /veh ISYNA1 (11749810_s_at) / RFU ACY1 (11761880_at) / Fold change /veh ACY1 (11761880_at) / RFU 11764098_at / Fold change /veh 11764098_at / RFU SAMD14 (11745864_x_at) / Fold change /veh SAMD14 (11745864_x_at) / RFU NPB (11741838_a_at) / Fold change /veh NPB (11741838_a_at) / RFU TMPRSS6 (11731388_a_at) / Fold change /veh TMPRSS6 (11731388_a_at) / RFU KRTAP10-2 (11738614_at) / Fold change /veh KRTAP10-2 (11738614_at) / RFU ARHGAP8 /// PRR5-ARHGAP8 (11727945_x_at) / Fold change /veh ARHGAP8 /// PRR5-ARHGAP8 (11727945_x_at) / RFU KRTAP5-7 /// NADSYN1 (11734609_at) / Fold change /veh KRTAP5-7 /// NADSYN1 (11734609_at) / RFU RASL12 (11751679_a_at) / Fold change /veh RASL12 (11751679_a_at) / RFU CDKN2B (11736163_a_at) / Fold change /veh CDKN2B (11736163_a_at) / RFU PRF1 (11729649_at) / Fold change /veh PRF1 (11729649_at) / RFU, ZNF638 /// ZNF638-IT1 / Fold change vs veh, ZNF638 /// ZNF638-IT1 / RFU, PANK3 / Fold change vs veh, PANK3 / RFU, SH3YL1 / Fold change vs veh, SH3YL1 / RFU, ZEB2 / Fold change vs veh, ZEB2 / RFU, NRIP1 / Fold change vs veh, NRIP1 / RFU, PTTG1IP / Fold change vs veh, PTTG1IP / RFU, CAPN2 / Fold change vs veh, CAPN2 / RFU, MED14 / Fold change vs veh, MED14 / RFU, SNORA58 / Fold change vs veh, SNORA58 / RFU, C1orf63 / Fold change vs veh, C1orf63 / RFU, LRRFIP1 / Fold change vs veh, LRRFIP1 / RFU, NDUFAF7 / Fold change vs veh, NDUFAF7 / RFU, SLC12A2 / Fold change vs veh, SLC12A2 / RFU, IBTK / Fold change vs veh, IBTK / RFU, ESF1 / Fold change vs veh, ESF1 / Fold change vs veh, TMEM50B / RFU, TAOK1 / Fold change vs veh, TAOK1 / RFU, ACBD3 / Fold change vs veh, ACBD3 / RFU, TMA16 / Fold change vs veh, TMA16 / RFU, RWDD3 / Fold change vs veh, RWDD3 / RFU, BCAT1 / Fold change vs veh, BCAT1 / RFU, EDEM3 / Fold change vs veh, EDEM3 / RFU, TMEM33 / Fold change vs veh, TMEM33 / RFU, WDR75 / Fold change vs veh, WDR75 / RFU, AHCTF1 / Fold change vs veh, AHCTF1 / RFU, TFRC / Fold change vs veh, TFRC / RFU, ZDHHC17 / Fold change vs veh, ZDHHC17 / RFU, NOM1 / Fold change vs veh, NOM1 / RFU, ARL8B / Fold change vs veh, ARL8B / RFU, ZBTB11 / Fold change vs veh, ZBTB11 / RFU, TAMM41 / Fold change vs veh, TAMM41 / RFU, KIAA1704 /// LOC100996395 / Fold change vs veh, KIAA1704 /// LOC100996395 / RFU, ING1 / Fold change vs veh, ING1 / RFU, TRMT61B / Fold change vs veh, TRMT61B / RFU, FUBP3 / Fold change vs veh, FUBP3 / RFU, TP53 / Fold change vs veh, TP53 / RFU, TNKS2 / Fold change vs veh, TNKS2 / RFU, ZFP14 / Fold change vs veh, ZFP14 / RFU, ACTR2 / Fold change vs veh, ACTR2 / RFU, PPP3R1 / Fold change vs veh, PPP3R1 / RFU, PIK3R1 / Fold change vs veh, PIK3R1 / RFU, HNRNPA1 / Fold change vs veh, HNRNPA1 / RFU, RNF170 / Fold change vs veh, RNF170 / RFU, ZNF28 / Fold change vs veh, ZNF28 / RFU, RNGTT / Fold change vs veh, RNGTT / RFU, OGT / Fold change vs veh, OGT / RFU, BRD1 / Fold change vs veh, BRD1 / RFU, MARS / Fold change vs veh, MARS / RFU, ZNF655 / Fold change vs veh, ZNF655 / RFU, FAHD1 / Fold change vs veh, FAHD1 / RFU, BDP1 / Fold change vs veh, BDP1 / RFU, LRRCC1 / Fold change vs veh, LRRCC1 / RFU, ARID1A / Fold change vs veh, ARID1A / RFU, ZNF146 / Fold change vs veh, ZNF146 / RFU, ZNF330 / Fold change vs veh, ZNF330 / RFU, GPN3 / Fold change vs veh, GPN3 / RFU, C9orf123 / Fold change vs veh, C9orf123 / RFU, N4BP2L2 / Fold change vs veh, N4BP2L2 / RFU, ARFIP1 / Fold change vs veh, ARFIP1 / RFU, FAM179B / Fold change vs veh, FAM179B / RFU, BCL10 / Fold change vs veh, BCL10 / RFU, UHRF1BP1L / Fold change vs veh, UHRF1BP1L / RFU, BET1 / Fold change vs veh, BET1 / RFU, CNOT2 / Fold change vs veh, CNOT2 / RFU, ZNF268 / Fold change vs veh, ZNF268 / Fold change vs veh, ZNF507 / RFU, DGCR2 / Fold change vs veh, DGCR2 / RFU, WDSUB1 / Fold change vs veh, WDSUB1 / Fold change vs veh, HSP90B1 /// MIR3652 / RFU, ADSS / Fold change vs veh, ADSS / RFU, GK / Fold change vs veh, GK / RFU, ZNF148 / Fold change vs veh, ZNF148 / RFU, TAF9 / Fold change vs veh, TAF9 / RFU, SLC1A5 / Fold change vs veh, SLC1A5 / RFU, SLMO2 / Fold change vs veh, SLMO2 / RFU, ABCC4 / Fold change vs veh, ABCC4 / RFU, LOC101060439 /// RAP1B / Fold change vs veh, LOC101060439 /// RAP1B / RFU, RFX7 / Fold change vs veh, RFX7 / RFU, GTPBP10 / Fold change vs veh, GTPBP10 / RFU, CNEP1R1 / Fold change vs veh, CNEP1R1 / RFU, BIVM-ERCC5 /// ERCC5 / Fold change vs veh, BIVM-ERCC5 /// ERCC5 / RFU, ILF3 / Fold change vs veh, ILF3 / RFU 11762660_at / Fold change /veh 11762660_at / RFU VCAN (11757783_s_at) / Fold change /veh VCAN (11757783_s_at) / RFU DDX43 (11728927_at) / Fold change /veh DDX43 (11728927_at) / RFU KRT8 (11758188_x_at) / Fold change /veh KRT8 (11758188_x_at) / RFU NKD1 (11759106_at) / Fold change /veh NKD1 (11759106_at) / RFU SRD5A1 (11742802_a_at) / Fold change /veh SRD5A1 (11742802_a_at) / RFU TPSAB1 /// TPSB2 (11721975_s_at) / Fold change /veh TPSAB1 /// TPSB2 (11721975_s_at) / RFU GSTM3 (11746129_a_at) / Fold change /veh GSTM3 (11746129_a_at) / RFU IL23R (11737362_x_at) / Fold change /veh IL23R (11737362_x_at) / RFU TMEM51 (11727254_a_at) / Fold change /veh TMEM51 (11727254_a_at) / RFU PIWIL2 (11732686_x_at) / Fold change /veh PIWIL2 (11732686_x_at) / RFU ORM1 (11744905_x_at) / Fold change /veh ORM1 (11744905_x_at) / RFU CCDC152 (11743942_at) / Fold change /veh CCDC152 (11743942_at) / RFU ECM1 (11717891_a_at) / Fold change /veh ECM1 (11717891_a_at) / RFU IL23R (11748794_a_at) / Fold change /veh IL23R (11748794_a_at) / RFU TNFAIP8L3 (11732012_x_at) / Fold change /veh TNFAIP8L3 (11732012_x_at) / RFU MBOAT4 (11741988_at) / Fold change /veh MBOAT4 (11741988_at) / RFU 11764193_at / Fold change /veh 11764193_at / RFU TMEM53 (11763286_at) / Fold change /veh TMEM53 (11763286_at) / RFU MAGEB2 (11727129_at) / Fold change /veh MAGEB2 (11727129_at) / RFU TMEM200A (11744735_a_at) / Fold change /veh TMEM200A (11744735_a_at) / RFU CCDC152 (11751479_a_at) / Fold change /veh CCDC152 (11751479_a_at) / RFU FAM211A (11726209_a_at) / Fold change /veh FAM211A (11726209_a_at) / RFU RGS16 (11746705_a_at) / Fold change /veh RGS16 (11746705_a_at) / RFU VCAN (11755009_s_at) / Fold change /veh VCAN (11755009_s_at) / RFU RHOB (11743442_s_at) / Fold change /veh RHOB (11743442_s_at) / RFU RGS16 (11720943_a_at) / Fold change /veh RGS16 (11720943_a_at) / RFU RGS16 (11720944_at) / Fold change /veh RGS16 (11720944_at) / RFU, VPS4B / Fold change vs veh, VPS4B / RFU, CREB1 / Fold change vs veh, CREB1 / RFU, DNAJC13 / Fold change vs veh, DNAJC13 / RFU, GNAQ / Fold change vs veh, GNAQ / RFU, CDK5R1 / Fold change vs veh, CDK5R1 / RFU, ZRANB3 / Fold change vs veh, ZRANB3 / RFU, CUL4A / Fold change vs veh, CUL4A / RFU, CCNY / Fold change vs veh, CCNY / RFU, UFL1 / Fold change vs veh, UFL1 / RFU, COG3 / Fold change vs veh, COG3 / RFU, DIAPH2 / Fold change vs veh, DIAPH2 / RFU, SKA2 / Fold change vs veh, SKA2 / RFU, AFF3 / Fold change vs veh, AFF3 / RFU, LMF1 / Fold change vs veh, LMF1 / RFU, IPO11 / Fold change vs veh, IPO11 / RFU, DFFB / Fold change vs veh, DFFB / RFU, FOXP1 / Fold change vs veh, FOXP1 / RFU, CARD8 / Fold change vs veh, CARD8 / RFU, STRN3 / Fold change vs veh, STRN3 / RFU, ADK / Fold change vs veh, ADK / RFU, RASSF2 / Fold change vs veh, RASSF2 / RFU, WIPF1 / Fold change vs veh, WIPF1 / RFU, LARP1B / Fold change vs veh, LARP1B / RFU, RASA1 / Fold change vs veh, RASA1 / RFU, RB1 / Fold change vs veh, RB1 / RFU, PPFIA1 / Fold change vs veh, PPFIA1 / RFU, MAT2A / Fold change vs veh, MAT2A / RFU, CCT5 / Fold change vs veh, CCT5 / RFU, WDR92 / Fold change vs veh, WDR92 / RFU, CUX1 / Fold change vs veh, CUX1 / RFU, TTC7A / Fold change vs veh, TTC7A / RFU, TMEM135 / Fold change vs veh, TMEM135 / RFU, DEPTOR / Fold change vs veh, DEPTOR / RFU, CPM / Fold change vs veh, CPM / RFU, DNAJB6 / Fold change vs veh, DNAJB6 / RFU, CACNA2D3 / Fold change vs veh, CACNA2D3 / RFU, DTX4 / Fold change vs veh, DTX4 / RFU, TFCP2 / Fold change vs veh, TFCP2 / RFU, GMCL1 /// GMCL1P1 / Fold change vs veh, GMCL1 /// GMCL1P1 / RFU, AEBP2 / Fold change vs veh, AEBP2 / RFU, SNHG1 /// SNORD22 /// SNORD25 /// SNORD26 /// SNORD27 /// SNORD28 /// SNORD29 /// SNORD31 / Fold change vs veh, SNHG1 /// SNORD22 /// SNORD25 /// SNORD26 /// SNORD27 /// SNORD28 /// SNORD29 /// SNORD31 / Fold change (Aza/veh), C12orf56 (ProbeSet 11735607_a_at) / Fold change (ACY-1035/veh), C12orf56 (ProbeSet 11735607_a_at) / Fold change (Aza/veh), FGFR1OP (ProbeSet 11751329_s_at) / Fold change (ACY-1035/veh), FGFR1OP (ProbeSet 11751329_s_at) / Fold change (Aza/veh), VPS36 (ProbeSet 11739960_a_at) / Fold change (ACY-1035/veh), VPS36 (ProbeSet 11739960_a_at) / RFU SYPL1 (11715823_x_at) / Fold change /veh SYPL1 (11715823_x_at) / RFU IGFBP7 (11715501_s_at) / Fold change /veh IGFBP7 (11715501_s_at) / RFU REEP3 (11722064_at) / Fold change /veh REEP3 (11722064_at) / RFU IGLL1 (11728026_x_at) / Fold change /veh IGLL1 (11728026_x_at): dose or concentration left out as unconfirmed. The settings on record: ProbeSet 11743929_at; LIST B. It is filed as cell-based, human.

In the case of `Nc1ccc(-c2cccs2)cc1NC(=O)c1ccc2c(c1)cc(C1CC1)n2CCN1CCOCC1` [ACY-1035], the “RFU, UHRF1BP1L” value was found to be 242.75 RFU.
